Test results published in the NIST ThermoML archive (doi:10.1021/je200668a).
Where “and” joins values, the source holds several entries; their conditions need not be identical. Identical values can stand only once.

Conditions: Liquid, Pulse Transmission

O [water]
Conditions	speed of sound
288.13 K, 250900 kPa	1878.5 m/s
288.13 K, 300400 kPa	1955.1 m/s
288.13 K, 701000 kPa	2453.9 m/s
288.14 K, 150300 kPa	1718.5 m/s
288.15 K, 50900 kPa	1550.1 m/s
288.15 K, 349200 kPa	2025.9 m/s
288.15 K, 499800 kPa	2225.2 m/s
288.16 K, 99800 kPa	1631.8 m/s
288.16 K, 200200 kPa	1800.9 m/s
288.17 K, 99700 kPa	1633.2 m/s
288.17 K, 401300 kPa	2098 m/s
288.17 K, 561300 kPa	2300.1 m/s
288.17 K, 640700 kPa	2391.2 m/s
297.74 K, 702200 kPa	2448.7 m/s
297.78 K, 653200 kPa	2402.2 m/s
297.79 K, 250300 kPa	1895.5 m/s
297.79 K, 549700 kPa	2286.1 m/s
297.8 K, 499500 kPa	2225.4 m/s
297.82 K, 601700 kPa	2346.1 m/s
297.83 K, 300300 kPa	1967.2 m/s
297.84 K, 200200 kPa	1819.5 m/s
297.88 K, 50600 kPa	1580.3 m/s
297.88 K, 151000 kPa	1743.2 m/s
297.89 K, 400300 kPa	2101.3 m/s
297.9 K, 100 kPa	1493.8 m/s
297.9 K, 450500 kPa	2165.2 m/s
297.99 K, 99500 kPa	1660.6 m/s
298.05 K, 349200 kPa	2035.4 m/s
298.07 K, 699900 kPa	2450.3 m/s
298.09 K, 659800 kPa	2412.6 m/s
298.1 K, 599200 kPa	2344.5 m/s
298.11 K, 551300 kPa	2287 m/s
298.12 K, 350600 kPa	2038.7 m/s
298.15 K, 400500 kPa	2103.8 m/s
298.15 K, 500000 kPa	2229.8 m/s
298.16 K, 200800 kPa	1821.6 m/s
298.16 K, 300500 kPa	1968.4 m/s
298.18 K, 450300 kPa	2167.6 m/s
298.2 K, 50100 kPa	1580.4 m/s
298.24 K, 400400 kPa	2102.3 m/s
298.27 K, 150700 kPa	1743.9 m/s
298.28 K, 350900 kPa	2038.4 m/s
298.29 K, 249200 kPa	1894.6 m/s
298.3 K, 150800 kPa	1745 m/s
298.3 K, 299000 kPa	1965.7 m/s
298.31 K, 100400 kPa	1662.8 m/s
298.31 K, 250700 kPa	1897.4 m/s
298.34 K, 50200 kPa	1580.9 m/s
298.34 K, 199800 kPa	1820.7 m/s
298.35 K, 100 kPa	1492.8 m/s
298.36 K, 100400 kPa	1664.2 m/s
298.37 K, 100 kPa	1492.2 m/s
298.38 K, 699000 kPa	2448 m/s
298.41 K, 651700 kPa	2400.7 m/s
298.42 K, 449900 kPa	2165.5 m/s
298.43 K, 499700 kPa	2225.8 m/s
298.43 K, 549200 kPa	2287.7 m/s
298.45 K, 601800 kPa	2347.7 m/s
308.06 K, 400400 kPa	2112.6 m/s
308.07 K, 449300 kPa	2173.3 m/s
308.08 K, 300500 kPa	1983.1 m/s
308.09 K, 349400 kPa	2048.7 m/s
308.09 K, 400000 kPa	2112.1 m/s
308.09 K, 499500 kPa	2230.5 m/s
308.09 K, 559700 kPa	2301.4 m/s
308.09 K, 650800 kPa	2402.2 m/s
308.09 K, 703600 kPa	2441.6 m/s
308.1 K, 250500 kPa	1913.4 m/s
308.1 K, 299900 kPa	1983.2 m/s
308.1 K, 350900 kPa	2048.9 m/s
308.1 K, 601700 kPa	2349.8 m/s
308.1 K, 698500 kPa	2446.7 m/s
308.11 K, 100 kPa	1515.3 m/s
308.11 K, 160100 kPa	1781.2 m/s
308.11 K, 650700 kPa	2402.3 m/s
308.12 K, 149900 kPa	1766.1 m/s
308.12 K, 200400 kPa	1840.6 m/s
308.12 K, 200700 kPa	1840.1 m/s
308.12 K, 299900 kPa	1984.1 m/s
308.12 K, 400700 kPa	2110.8 m/s
308.13 K, 51000 kPa	1606 m/s
308.13 K, 349800 kPa	2049.7 m/s
308.13 K, 599600 kPa	2344.5 m/s
308.14 K, 99700 kPa	1690.4 m/s
308.14 K, 150300 kPa	1766.1 m/s
308.14 K, 449900 kPa	2171.7 m/s
308.14 K, 701600 kPa	2447.4 m/s
308.15 K, 100 kPa	1514.3 m/s and 1514.1 m/s
308.15 K, 250800 kPa	1913.1 m/s
308.15 K, 450900 kPa	2174.9 m/s
308.15 K, 499400 kPa	2232.5 m/s
308.16 K, 111000 kPa	1706.1 m/s
308.16 K, 639800 kPa	2388.9 m/s
308.17 K, 50300 kPa	1604.9 m/s
308.17 K, 99800 kPa	1690 m/s
308.17 K, 200300 kPa	1839.8 m/s
308.17 K, 549700 kPa	2292.4 m/s
308.19 K, 250500 kPa	1913.9 m/s
308.19 K, 549600 kPa	2291 m/s
308.21 K, 499700 kPa	2232.3 m/s
308.22 K, 50600 kPa	1605.5 m/s
308.22 K, 599600 kPa	2346.6 m/s
318.02 K, 200600 kPa	1860.6 m/s
318.02 K, 350800 kPa	2062 m/s
318.06 K, 399700 kPa	2122.5 m/s
318.07 K, 99500 kPa	1705.7 m/s
318.09 K, 349600 kPa	2062.1 m/s
318.1 K, 200400 kPa	1860.8 m/s
318.1 K, 299400 kPa	1995.8 m/s
318.1 K, 300100 kPa	1998.9 m/s
318.1 K, 349600 kPa	2061 m/s
318.1 K, 449800 kPa	2181.8 m/s
318.11 K, 150100 kPa	1787.1 m/s
318.11 K, 160100 kPa	1802.4 m/s
318.11 K, 250600 kPa	1930.2 m/s
318.12 K, 50400 kPa	1623.1 m/s
318.12 K, 299900 kPa	1996.4 m/s
318.12 K, 599100 kPa	2350.3 m/s
318.12 K, 599600 kPa	2346.3 m/s
318.12 K, 641800 kPa	2388.1 m/s
318.13 K, 250400 kPa	1930.2 m/s
318.13 K, 399600 kPa	2121.7 m/s
318.14 K, 111200 kPa	1725.7 m/s
318.14 K, 449700 kPa	2182.1 m/s
318.14 K, 701800 kPa	2454.2 m/s
318.15 K, 250000 kPa	1930.6 m/s
318.15 K, 651000 kPa	2405.8 m/s
318.16 K, 100 kPa	1530.9 m/s
318.16 K, 401300 kPa	2123.6 m/s
318.16 K, 549200 kPa	2297.1 m/s
318.16 K, 559300 kPa	2305.4 m/s
318.17 K, 50000 kPa	1622.5 m/s
318.17 K, 499100 kPa	2239.1 m/s
318.17 K, 499800 kPa	2240.9 m/s
318.17 K, 549400 kPa	2295.5 m/s
318.18 K, 450600 kPa	2183.6 m/s
318.18 K, 702400 kPa	2453.8 m/s
318.19 K, 200200 kPa	1861.8 m/s
318.19 K, 499900 kPa	2239.9 m/s
318.19 K, 651200 kPa	2401.2 m/s
318.19 K, 701700 kPa	2454.7 m/s
318.21 K, 99700 kPa	1706.9 m/s
318.21 K, 602100 kPa	2348.1 m/s
318.22 K, 150400 kPa	1788.9 m/s
318.26 K, 49100 kPa	1621.2 m/s
327.92 K, 641400 kPa	2396.1 m/s
327.96 K, 560500 kPa	2312.8 m/s
327.97 K, 701700 kPa	2451.4 m/s
328.07 K, 550700 kPa	2301.2 m/s
328.08 K, 109200 kPa	1735.6 m/s
328.08 K, 350700 kPa	2075.4 m/s
328.08 K, 499600 kPa	2246.7 m/s
328.1 K, 150000 kPa	1799.2 m/s
328.12 K, 100100 kPa	1720.7 m/s
328.13 K, 200200 kPa	1875.4 m/s
328.14 K, 50900 kPa	1636.9 m/s
328.14 K, 300800 kPa	2013.9 m/s
328.14 K, 450900 kPa	2192 m/s
328.15 K, 300000 kPa	2015.6 m/s
328.16 K, 159900 kPa	1816 m/s
328.16 K, 351700 kPa	2077.1 m/s
328.16 K, 399700 kPa	2133 m/s
328.16 K, 499400 kPa	2246.5 m/s
328.16 K, 601200 kPa	2355.9 m/s
328.16 K, 601900 kPa	2353.3 m/s
328.16 K, 700100 kPa	2453.2 m/s
328.17 K, 50600 kPa	1636.4 m/s
328.17 K, 200900 kPa	1876.4 m/s
328.18 K, 250700 kPa	1946.5 m/s
328.19 K, 100 kPa	1541.1 m/s
328.19 K, 250700 kPa	1947.4 m/s
328.21 K, 449800 kPa	2189.2 m/s
328.21 K, 652700 kPa	2406.9 m/s
328.22 K, 400100 kPa	2137.3 m/s
328.27 K, 100 kPa	1542.1 m/s
328.49 K, 99800 kPa	1720.6 m/s
328.66 K, 650700 kPa	2404.5 m/s
328.69 K, 300000 kPa	2012.1 m/s
328.72 K, 200100 kPa	1874.3 m/s
328.72 K, 400500 kPa	2138.4 m/s
328.72 K, 551000 kPa	2304.7 m/s
328.73 K, 50900 kPa	1637.5 m/s
328.74 K, 449200 kPa	2194.3 m/s
328.76 K, 100 kPa	1543.9 m/s
328.76 K, 601300 kPa	2354.9 m/s
328.77 K, 350900 kPa	2076.6 m/s
328.77 K, 700400 kPa	2453.8 m/s
328.83 K, 150100 kPa	1799.9 m/s
328.9 K, 250100 kPa	1944.4 m/s
328.92 K, 499400 kPa	2250.4 m/s
337.66 K, 150000 kPa	1810.9 m/s
337.69 K, 350500 kPa	2086.1 m/s
337.69 K, 399100 kPa	2142.9 m/s
337.75 K, 200500 kPa	1886 m/s
337.8 K, 501100 kPa	2260 m/s
337.85 K, 300700 kPa	2024 m/s
337.87 K, 50100 kPa	1643.6 m/s
337.95 K, 100500 kPa	1731.6 m/s
338.02 K, 100 kPa	1547.4 m/s
338.04 K, 601100 kPa	2360.1 m/s
338.07 K, 650600 kPa	2410.2 m/s
338.12 K, 451000 kPa	2203.4 m/s
338.15 K, 250300 kPa	1956.7 m/s
338.22 K, 549600 kPa	2309.8 m/s
338.22 K, 700800 kPa	2455.7 m/s
349.03 K, 601700 kPa	2366 m/s
349.12 K, 500600 kPa	2267.1 m/s
349.18 K, 49900 kPa	1647.8 m/s
349.19 K, 100 kPa	1549 m/s
349.22 K, 150700 kPa	1818.4 m/s
349.22 K, 300400 kPa	2029.7 m/s
349.27 K, 549200 kPa	2313.8 m/s
349.28 K, 400700 kPa	2153 m/s
349.3 K, 250900 kPa	1965 m/s
349.32 K, 349800 kPa	2091.6 m/s
349.35 K, 450800 kPa	2209.4 m/s
349.41 K, 100400 kPa	1737.3 m/s
349.59 K, 651400 kPa	2412.5 m/s
349.68 K, 200700 kPa	1892.8 m/s
349.72 K, 704500 kPa	2445.1 m/s
